Experimental data as given in patent US20110281815A1, “Parental formulations of gemcitabine derivatives” (CLAVIS PHARMA AS, priority 2009, published 2011).
Each block holds one molecule with its values, some of them ahead of it.

Key:
[1] = rapid deamination to dFdU; cited from earlier work
[2] = formulation of elacytarabine model substance with egg PC/egg PG; format: physicochemical
Procedure: (§1) It was investigated if the unexpectedly high concentration (15 mg/mL-60 mg/mL) of the active compound achieved in the formulations described in Examples 1 through 7, and under section 6, Manufacture of the Formulation, was unique to a chemical compound as shown in Formula (I) or if the method was of a more general nature. The structurally similar compound elacytarabine (ara-C-5′-elaidic acid ester) as shown in Formula (II) was used as a related model substance. This model substance contains the same 5′-elaidic acid ester moiety as found in Formula (I) (R1=R3=H, R2=elaidate), and the same cytosine nucleoside ring system. The minor difference between the compounds described in Formula (I) and Formula (II) is the substitution at the 2′ position of the ribose ring for Formula (I) contains geminal fluorines, while Formula (II) contains H and OH.
It is concluded that the Formula I compound provides unexpectedly unique attributes of high loading and stability to the described lipid based formulations.

[3] = human, in vivo
Procedure: (§2) The intravenous formulation of gemcitabine-5′-elaidic acid ester as described in Example 1 was used in a phase I, first in human clinical study. The aims of this study were to determine the safety, toxicity, MTD (Maximum Tolerated Dose) and the RD (Recommended Dose) of gemcitabine-5′-elaidic acid ester, to describe its pharmacokinetic (PK) characteristics, and to assess its preliminary antitumor activity.
(§3) Gemcitabine-5′-elaidic acid ester was administered on days (d) 1, 8 and 15 every 4 week by a 30 min IV infusion. The dose range was from 30 to 1600 mg/m2/d. 43 patients were enrolled and the RD was established at 1250 mg/m^2/d. […] Stabilisation of disease (>3 months) reported in 7 patients (pancreas, colon and ovarian cancer) lasting between 3.5 to >8 months.
Gemcitabine-5′-elaidic acid ester was detected in plasma up to 24 hrs post-dosing. […] Urinary excretion of the main metabolite, dFdU, during the first 24 hrs was 48-71% of the dose.

[4] = human, in vivo; remark: listed apart in the source
Procedure: as §2, §3

[5] = drug load / particle formation of gemcitabine-5′-elaidate in alternative formulations; format: physicochemical
Procedure: Particle formation without the use of phospholipids was not successful. Gemcitabine-5′-elaidic acid ester was dissolved in ethanol in a weight ratio of 1:24. The mixture was stirred until all solid material was dissolved.
The ethanol solution was thereafter injected into a […] with vigorous mixing. The weight ratio of ethanol solution to the glycerol solution was 1:12. The mixture appeared to contain conglomerates as determined by visual inspection.
Mixed micellar formulations with phospholipids and non-ionic surfactants were not successful in preparation of high drug load formulations. Mixed micelles were prepared using a 1:1 weight ratio of egg lecithin:Tween 20 for a final concentration of 50 mg/mL dissolved solids.
Liposomal formulations with egg lecithin and oleic acid were not successful in preparation of high drug load formulations. Liposomes were prepared by means of dissolution of gemcitabine-5′-elaidate, egg lecithin, and oleic acid in a molar ratio of 1:14.4:2 in ethanol. The solvent was evaporated and the residual solids dispersed into 2.6% glycerol in water using an Ultraturrax followed by high pressure homogenization. Stable formulations could be achieved up to 3 mg/mL gemcitabine-5′-elaidate.
as §1

[6] = buffer, pH 7.4
[7] = system: pancreas, colon and ovarian cancer; experiment: phase I clinical study: preliminary antitumor activity; format: in vivo, human
Procedure: as §2, §3

Compound: Nc1ccn([C@@H]2O[C@H](CO)[C@@H](O)C2(F)F)c(=O)n1 [gemcitabine, 2′,2′-difluorodeoxy-cytidine]
half-life of gemcitabine in plasma [1]: approximately 10 minutes

Particle size (Z-.avg) ([2]; Egg PC/egg PG, 10 mg/mL): (Z-.avg) 97 nm | outcome after filtration ([2]; Egg PC/egg PG, 10 mg/mL): Large lipid agglomerates | outcome upon storage ([2]; Egg PC/egg PG, 15 mg/mL, storage at 2-8° C.): Precipitation | Final content ([2]; Egg PC/egg PG, elacytarabine concentration 10 mg/mL): Final content 8 mg/ml. | Final content ([2]; Egg PC/egg PG, elacytarabine concentration 15 mg/mL): 12 mg/mL | formulation outcome ([2]; Egg PC/egg PG, elacytarabine concentration 20 mg/mL, during homogenisation): Precipitation during | formulation outcome ([2]; Egg PC/egg PG, elacytarabine concentration 30 mg/mL, during solvent injection): Precipitation | formulation outcome ([2]; Formula II compound included in excess of 20 mg/mL): precipitation during processing | formulation outcome on storage ([2]; target concentrations of less than 15 mg/mL, precipitation and agglomeration): unstable during storage
Compound: CCCCCCCC/C=C/CCCCCCCC(=O)OC[C@H]1O[C@@H](n2ccc(N)nc2=O)[C@@H](O)[C@@H]1O [Elacytarabine, ara-C-5′-elaidic acid ester]

Compound: CCCCCCCC/C=C/CCCCCCCC(=O)OC[C@H]1O[C@@H](n2ccc(N)nc2=O)C(F)(F)[C@@H]1O [gemcitabine-5′-elaidic acid ester]
AUC for gemcitabine (dFdC) exposure versus intravenous gemcitabine at comparable dose levels [3]: significantly higher | time detected in plasma post-dosing ([3]; iv): up to 24 hrs | most frequent toxicities [4]: nausea, fatigue, vomiting and anorexia | RD (Recommended Dose) ([4]; iv): 1250 mg/m^2/d | recommended dose for intravenous administration ([4]; iv): 1250 mg/m^2 | maximal concentration of gemcitabine-5′-elaidate in mixed micelles ([5]; 1:1 egg lecithin:Tween 20, 50 mg/mL dissolved solids): less than 5 mg/mL | concentration up to which stable liposomal formulations could be achieved ([5]; egg lecithin and oleic acid liposomes, 2.6% glycerol in water): up to 3 mg/mL | maximal concentration of gemcitabine-5′-elaidate in mixed micelles ([5]; egg lecithin with glycholic acid as surfactant): 2 mg/mL | particle formation without phospholipids ([5]; ethanol solution injected into water for injection, homogenization attempted): not capable of forming stable particles | half life (hydrolytic degradation) [6]: approximately 30 minutes | stabilisation of disease (>3 months), number of patients ([7]; 43 patients enrolled, pancreas, colon and ovarian cancer): 7 patients | reduction in tumor mass ([7]; one patient with ovarian cancer): 28.3%
